Test results published in publication PMC3337405 (Cancer Chemotherapy and Pharmacology, 2012).

Key:
[1] = system: healthy volunteers; assay: Adverse events and discontinuations; assay type: in vivo, human
Description: (§1) Electrocardiogram analysis was performed at a blinded central reading facility (ERT, East Bridgewater, NJ) in digital format, with paper tracings obtained and archived immediately on site. Vital signs were assessed daily. Clinical laboratory parameters were assessed at baseline and at the end of study. Self-reported adverse events were continuously recorded from the first study treatment (placebo, day −1) through the end of study on day 4.

[2] = system: patients with ASM, mast cell leukemia, or systemic mastocytosis; conditions: 100 mg twice daily; 26 patients; preliminary results; cited from earlier work
[3] = system: healthy volunteers; assay: Outlier analysis of QTc and other ECG parameters, ECG morphology; assay type: in vivo, human; conditions: for QTcB >30 ms, time-matched change from baseline, participants: text: 30- to 60-ms category
Description: Outlier analysis for QTc was also exploratory because this study was not powered to detect individuals with genetic sensitivity to potential QT-prolonging drugs. The nonspecific outlier criterion was a change from baseline in QTc interval of 30–60 ms.
as §1, with “Standard triplicate 12-lead ECGs were obtained at 9 time points over 24 h at […] and at 2 time points on day 1. Electrocardiogram” for “Electrocardiogram”

[4] = system: healthy volunteers; assay: Thorough QT/QTc study: QTcF change from baseline on day 3 (12-lead ECG); assay type: in vivo, human; conditions: for QTcF change from time-matched baseline, Difference (Midostaurin – Placebo) / Upper bound of the one-sided 95% CI of Difference (Midostaurin – Placebo) in QTcF change: day 3; for QTcF change on day 3 from time-matched baseline: midostaurin arm
Source text: This study was a phase I, randomized, double-blind, placebo- and active-controlled, 3-way, parallel-group study conducted at a single center in the United States and approved by the Arkansas Research Medical Testing, LLC, Institutional Review Board. The design followed the recommendations of the International Conference on Harmonisation of Technical Requirements for Registration of Pharmaceuticals for Human Use (ICH) E14 guideline on “The Clinical Evaluation of QT/QTc Interval Prolongation and Proarrhythmic Potential for Non-Antiarrhythmic Drugs” [19]. As such, the trial included a concurrent positive control group and addressed intrinsic variability by conducting multiple ECGs at baseline and during the study. The study was conducted according to the ethical principles of the Declaration of Helsinki, and written informed consent was obtained from each subject during screening.
The treatment regimen was selected to achieve maximal plasma exposure for QTc evaluation while minimizing the risks of excessive or prolonged exposure in healthy volunteers.
The baseline comparison was from day −1 to day 3 at matched time points.
The following hypothesis was tested to confirm that the study had sufficient assay sensitivity: [drawing 3] [drawing 4] where μmoxi(t) was the mean QTcF change from baseline observed following moxifloxacin 400 mg at time point t. If the null hypothesis was rejected, the study had sufficient sensitivity. The Simes method was used for the protection of an experiment-wise 5% type I error [22, 23]. With the Simes method, the original P values corresponding to 0.5, 1, 2, 3, and 4 h post baseline are ordered increasingly, that is, P 1 ≤ P 2 ≤ P 3 ≤ P 4 ≤ P 5. After the Simes correction, the P values were 5P 1, 5P 2/2, 5P 3/3, 5P 4/4, and P 5 respectively. If any of the 5 adjusted P values were <.05, assay sensitivity was claimed. Only the participants who completed all scheduled doses of study medication from day 1 to day 3 and had at least 1 ECG on day −1 (baseline) and at least 1 ECG on day 3 (time-matched day 3 data for the time-matched analysis) were included in the assay sensitivity test.
Electrocardiogram measurements at each time point were calculated as an average of 3 separate ECG extractions or replicates. (Each extraction was the mean of 3 beats.) If fewer than 3 measurements were available, the available samples were averaged (i.e., a minimum of 1 measure was required). For each subject, the time-matched baseline value was subtracted from the QT/QTc intervals to determine the change from baseline in QT/QTc intervals for that subject. The 2 null hypotheses described above were tested in a linear mixed-effect model with a compound symmetry covariance structure. The model included the baseline measure as covariate and treatment, time, and the treatment-by-time interaction as fixed effects, where time was a categorical variable and subject was a random effect.
The time-matched analysis was conducted on the QTcF change from the time-matched baseline as recommended by the ICH E14 guideline. Although modeling change from the time-matched baseline was the primary analysis, the change from the time-averaged baseline was also analyzed using the same model. For the averaged baseline, each triplicate ECG collection was averaged first, and then the averaged baseline was calculated based on all the averaged triplicate ECG and unscheduled ECGs.
as §1, with “Standard triplicate 12-lead ECGs were obtained at 9 time points over 24 h at […] and at 2 time points on day 1. Electrocardiogram” for “Electrocardiogram”

[5] = Plasma pharmacokinetics, noncompartmental analysis; conditions: human, plasma, 75 mg; for Cmax: mean (SD)
Description: Blood samples for PK analysis were collected predose and 0.5, 1, 2, 3, 4, 8, 12, and 24 h post dose on days 1 and 3 at the same time as ECG assessments. […] Noncompartmental analysis (WinNonlin™ version 5.2, Pharsight, Sunnyvale, California) was performed to determine the following PK parameters: C max, T max, minimum (trough) plasma concentration over a dosing interval (C min), and AUC calculated using a trapezoidal method. For moxifloxacin, the AUC from time 0 to the last measurable concentration sampling time was calculated (AUC0–tlast).

[6] = midostaurin, 24 h post dose on day 3

SMILES: CO[C@@H]1[C@H](N(C)C(=O)c2ccccc2)C[C@H]2O[C@]1(C)n1c3ccccc3c3c4c(c5c6ccccc6n2c5c31)C(=O)NC4 [Midostaurin, N-benzoylstaurosporin]
- Abdominal pain ([1]; human, in vivo): 4 (5.1) no. (%)
- Arthralgia ([1]; human, in vivo): 0 (0.0) no. (%)
- Diarrhea ([1]; human, in vivo): 25 (31.6) no. (%)
- Discontinued, main cause Adverse event(s) ([1]; human, in vivo): 19 (23.8) no. (%)
- Dizziness ([1]; human, in vivo): 0 (0.0) no. (%)
- Dry mouth ([1]; human, in vivo): 0 (0.0) no. (%)
- Dysmenorrhea ([1]; human, in vivo): 1 (1.3) no. (%)
- Dyspepsia ([1]; human, in vivo): 1 (1.3) no. (%)
- Eructation ([1]; human, in vivo): 3 (3.8) no. (%)
- Flatulence ([1]; human, in vivo): 3 (3.8) no. (%)
- Flushing ([1]; human, in vivo): 2 (2.5) no. (%)
- Headache ([1]; human, in vivo): 5 (6.3) no. (%)
- Hiccups ([1]; human, in vivo): 2 (2.5) no. (%)
- Hot flushes ([1]; human, in vivo): 1 (1.3) no. (%)
- Nausea ([1]; human, in vivo): 30 (38.0) no. (%)
- Pollakiuria ([1]; human, in vivo): 0 (0.0) no. (%)
- Rash ([1]; human, in vivo): 0 (0.0) no. (%)
- Salivary hypersecretion ([1]; human, in vivo): 2 (2.5) no. (%)
- Sexually transmitted disease ([1]; human, in vivo): 1 (1.3) no. (%)
- Tachycardia ([1]; human, in vivo): 2 (2.5) no. (%)
- Vomiting ([1]; human, in vivo): 19 (24.1) no. (%)
- Participants with adverse events ([1]; human, in vivo, 4 day): 43 (54.4) no. (%)
- discontinuations because of gastrointestinal events of vomiting ([1]; midostaurin arm, vomiting within 4 h of dosing): 17 n
- Discontinued, main cause Adverse event(s) ([1]; randomized set): 19 no. (%)
- Discontinued, main cause Death ([1]; randomized set): 0 (0.0) no. (%)
- overall response rate [2]: 69%
- new U-wave abnormalities ([3]; 12-lead ECG): No new U-wave abnormalities
- new post baseline T-wave abnormalities ([3]; 12-lead ECG): Three
- effects on heart rate, atrioventricular conduction, cardiac depolarization (PR and QRS interval durations) ([3]; midostaurin 75 mg twice daily): no effects on heart rate, atrioventricular conduction, or cardiac depolarization
- PR increase ≥25% and resultant PR >200 ms, participants ([3]; safety set): 0 no. (%)
- QRS increase ≥25% and resultant QRS >100 ms, participants ([3]; safety set): 0 no. (%)
- QTcB >60 ms, time-matched change from baseline, participants ([3]; safety set): 0 no. (%)
- QTcF >30 ms, time-matched change from baseline, participants ([3]; safety set): 0 no. (%)
- QTcF >60 ms, time-matched change from baseline, participants ([3]; safety set): 0 no. (%)
- QTcI >30 ms, time-matched change from baseline, participants ([3]; safety set): 0 no. (%)
- QTcI >60 ms, time-matched change from baseline, participants ([3]; safety set): 0 no. (%)
- RR decrease ≥25% and resultant RR <600 ms, participants ([3]; safety set): 1 (1.3) no. (%)
- RR increase ≥25% and resultant RR >1,200 ms, participants ([3]; safety set): 1 (1.3) no. (%)
- QTcF New >450 ms, participants ([3]; safety set, post baseline): 0 no. (%)
- QTcB New >450 ms, participants ([3]; safety set, post baseline, text: between 450 and 480 ms): 1 (1.3%) no. (%)
- QTcB >30 ms, time-matched change from baseline, participants ([3]; safety set): 1 (1.3) no. (%)
- QTcB >30 ms, time-matched change from baseline, participants ([3]; safety set, listed as midostaurin): 1 (1.3%) no. (%)
- QTcF change from time-matched baseline, Difference (Midostaurin – Placebo) ([4]; 0 h): -2.7 ms
- Upper bound of the one-sided 95% CI of Difference (Midostaurin – Placebo) in QTcF change ([4]; 0 h): 1.3 ms
- QTcF change from time-matched baseline, Difference (Midostaurin – Placebo) ([4]; 0.5 h): -1.9 ms
- Upper bound of the one-sided 95% CI of Difference (Midostaurin – Placebo) in QTcF change ([4]; 0.5 h): 2.1 ms
- QTcF change from time-matched baseline, Difference (Midostaurin – Placebo) ([4]; 1 h): -3.7 ms
- Upper bound of the one-sided 95% CI of Difference (Midostaurin – Placebo) in QTcF change ([4]; 1 h): 0.3 ms
- QTcF change from time-matched baseline, Difference (Midostaurin – Placebo) ([4]; 2 h): -5.1 ms
- Upper bound of the one-sided 95% CI of Difference (Midostaurin – Placebo) in QTcF change ([4]; 2 h): -1.1 ms
- QTcF change from time-matched baseline, Difference (Midostaurin – Placebo) ([4]; 3 h): -3.9 ms
- Upper bound of the one-sided 95% CI of Difference (Midostaurin – Placebo) in QTcF change ([4]; 3 h): 0.1 ms
- QTcF change from time-matched baseline, Difference (Midostaurin – Placebo) ([4]; 4 h): -3.4 ms
- Upper bound of the one-sided 95% CI of Difference (Midostaurin – Placebo) in QTcF change ([4]; 4 h): 0.6 ms
- QTcF change from time-matched baseline, Difference (Midostaurin – Placebo) ([4]; 8 h): -0.7 ms
- Upper bound of the one-sided 95% CI of Difference (Midostaurin – Placebo) in QTcF change ([4]; 8 h): 3.3 ms
- QTcF change from time-matched baseline, Difference (Midostaurin – Placebo) ([4]; 12 h): -0.6 ms
- Upper bound of the one-sided 95% CI of Difference (Midostaurin – Placebo) in QTcF change ([4]; 12 h): 3.4 ms
- QTcF change from time-matched baseline, Difference (Midostaurin – Placebo) ([4]; 24 h): 0.7 ms
- Upper bound of the one-sided 95% CI of Difference (Midostaurin – Placebo) in QTcF change ([4]; 24 h): 4.7 ms
- maximum mean QTcF change from time-matched baseline compared with placebo ([4]; midostaurin 75 mg twice daily days 1-2, once day 3, 24 h post dose on day 3, ECG set): 0.7 ms
- QTcF change on day 3 from time-matched baseline ([4]; 0 h): -3.2 ms
- QTcF change on day 3 from time-matched baseline ([4]; 0.5 h after administration): -5.2 ms
- QTcF change on day 3 from time-matched baseline ([4]; 1 h after administration): -6.3 ms
- QTcF change on day 3 from time-matched baseline ([4]; 2 h after administration): -6.2 ms
- QTcF change on day 3 from time-matched baseline ([4]; 3 h after administration): -5.2 ms
- QTcF change on day 3 from time-matched baseline ([4]; 4 h after administration): -6.4 ms
- QTcF change on day 3 from time-matched baseline ([4]; 8 h after administration): -1.9 ms
- QTcF change on day 3 from time-matched baseline ([4]; 12 h after administration): -3.1 ms
- QTcF change on day 3 from time-matched baseline ([4]; 24 h after administration): -3.9 ms
- highest upper bound of 95% CI, QTcF change from time-averaged baseline compared with placebo [4, 6]: 4.9 ms
- maximum mean QTcF change from time-averaged baseline compared with placebo [4, 6]: 2.5 ms
- Tmax ([5]; oral, time of peak concentrations post dose, midostaurin dosing, days 1 and 3): 1 h
- Cmax ([5]; po, Day 1 (single dose), midostaurin 75 mg oral): 2140 ng/mL
- Cmax ([5]; po, Day 3 (twice daily), midostaurin 75 mg oral): 2270 ng/mL
- Tmax ([5]; po, Tmax, median (range), Day 1 (single dose), midostaurin 75 mg oral): 1 h
- Tmax ([5]; po, Tmax, median (range), Day 3 (twice daily), midostaurin 75 mg oral): 1.1 h
